Where “and” joins values, the source holds several entries; their conditions need not be identical. Identical values can stand only once. Numbers after ± are expanded uncertainties.
Tests used:
[1] = Molar enthalpy of transition or fusion; conditions: Crystal; DSC
[2] = Crystal; DTA

Molar enthalpy of transition or fusion [1]: 7.6 kcal/mol and 9.5 kcal/mol
Normal melting temperature [2]: 287 ± 3 °C
SMILES: O=C([O-])Cc1ccccc1Nc1c(Cl)cccc1Cl.[Na+] [sodium diclofenac]

— the NIST ThermoML archive (doi:10.1016/j.fluid.2007.07.020)
